US20090291950A1, “BICYCLIC HETEROARYL INHIBITORS OF PDE4” (KALYPSYS, INC., priority 2006, published 2009)

Tests used:
PDE4B = molecular target: T1, PDE4B (Homo sapiens, UniProt Q07343); assay: coupled PDE/AK bioluminescent assay; type: biochemical; settings: catalytic domain of PDE4B
T1 construct: hexahistidine (His6) (N); made in house
From the text: Phosphodiesterases regulate the activity of the second messenger cyclic adenosine monophosphate (cAMP) by hydrolyzing cAMP to adenosine monophosphate (AMP). We developed a novel coupled PDE/AK bioluminescent high-throughput assay to measure the activity of phosphodiesterases. In the PDE/AK assay, the AMP produced from the hydrolysis of cAMP by phosphodiesterase is converted to adenosine diphosphate (ADP) by the phosphotransferase activity of adenylate kinase (also known as ADK or myokinase). Adenylate kinase will catalyze the conversion of 1 mole of AMP and 1 mole of ATP into 2 moles of ADP. Thus the conversion of AMP to ADP will result in the subsequent loss of ATP. The decrease in ATP concentration can be monitored as light output using luciferase in a reaction that requires ATP to produce light. The PDE/AK assay uses luciferase, which catalyzes the production of light from ATP present in the reaction mix. The amount of emitted light is inversely proportional to the level of AMP present in the reaction. Test compounds are incubated with the phosphodiesterases and phosphodiesterase inhibitors will decrease the rate of cAMP hydrolysis and decrease the subsequent production of AMP. Thus phosphodiesterase inhibitors will decrease the conversion of ATP to ADP and result in the greatest emission of light.
Compounds may be screened for functional potency in in vitro biochemical assays for their ability to inhibit the activity of phosphodiesterase (PDE) enzymes. A novel coupled PDE/AK assay was utilized to measure the inhibitory activity of compounds on PDE isoforms. The catalytic domain of PDE4B was fused to an amino-terminus hex-histidine affinity tag and purified. PDE4B enzyme was incubated with compounds for 10 minutes. Cyclic AMP substrate, ATP and adenylate kinase were then added to the PDE enzyme mix and incubated for 45 minutes at room temperature. A commercial ATP detection assay, Perkin Elmer's easyLite ATP detection reagent, was then added to measure the relative amount of ATP present in the reaction. After 10 minute incubation, the luminescent signal was quantitated with either the Perkin Elmer Viewlux or Molecular Devices Acquest or Analyst. Roflumilast and Rolipram are the positive controls used in the assay.
The PDE/AK assay can be performed with any cAMP dependent phosphodiesterase, and can be performed in 96-, 384-, or 1536-well plates. […] Specifically, the use of radioactive substrates in a phosphodiesterase activity assay requires special protocols for handling and waste disposal, and reduced throughput. Modified substrates add the additional complexity of potentially altering the binding to the phosphodiesterase catalytic site. Fluorescently modified substrates may cause fluorescence artifacts that may interfere in the interpretation of assay results. The use of beads that selectively bind to either the cAMP or AMP may cause an additional complexity in reagent handling. The use of antibodies that selectively bind to either cAMP or AMP can be extremely costly with a relatively small signal to noise ratio. Therefore, the novel PDE/AK assay represents a simple, cost-effective alternative to known methods.

[1] = tested on: dry eye (corneal staining, tear breakup time); assay: Lacrimal gland inflammation-induced dry eye in rabbits; type: in vivo; settings: topical ocular BID, rabbit ConA dry eye
From the text: A more detailed description of the assay used herein may be found in Naglehout, T J et al. 2005, “Preservation of Tear Film Integrity and Inhibition of Corneal Injury by Dexamethasone in a Rabbit Model of Lacrimal Gland Inflammation-Induced Dry Eye,”J. Ocular Pharm. Ther., 21:2. 139-148, the disclosure of which is hereby incorporated by reference as if written herein in its entirety. Rabbits (n=4/group) were randomized into treatment groups and dosed topically BID with maxidex vehicle or test drug beginning one day prior to initiation of dry eye. Each rabbit received bilateral lacrimal gland injections of saline or ConA (300 μg/30 μl) and topical ocular dosing was continued BID throughout the study. Desiccation was initiated 1-2 hours following lacrimal gland injection by placing conscious rabbits in the environmental chamber (10-15% humidity/72° F.). Following 72 consecutive hours of exposure to this dry environment, the animals were anesthetized and sutures were placed in each upper and lower eyelid and lifted to form a corneal/conjunctival cup. Methylene blue dye (1 mL, 1% in dH2O) was added to the cup for three minutes and the excess removed by washing with 200 mL BSS®. The contralateral eye was then stained using the same procedure. Rabbits were euthanized immediately following the staining procedure and the eyes were excised. The corneas were isolated with a trephine and the 9.5-mm punch of the cornea was placed in 2 mL acetone/saturated sodium sulfate (7:3, vol./vol.). Absorbance of the extracted dye was determined at 660 nm. TBUT was quantified in a separate group of treated animals. TBUT was determined by instilling 5 μL sodium fluorescein into the cul de sac and manually blinking the lids to distribute the fluorescein within the tear film. Under slit lamp observation, the eye was held open and the time whereby one or more black spots or streaks appeared in the precorneal tear film was recorded. The rabbits were euthanized 3 days following ConA inj ection.

[2] = 1 × 10^−2 percent concentration
[3] = 1 × 10^−4 percent concentration
[4] = 1 × 10^−6 percent concentration

T1 sequence (Q07343 330-659 limits assumed, species assumed): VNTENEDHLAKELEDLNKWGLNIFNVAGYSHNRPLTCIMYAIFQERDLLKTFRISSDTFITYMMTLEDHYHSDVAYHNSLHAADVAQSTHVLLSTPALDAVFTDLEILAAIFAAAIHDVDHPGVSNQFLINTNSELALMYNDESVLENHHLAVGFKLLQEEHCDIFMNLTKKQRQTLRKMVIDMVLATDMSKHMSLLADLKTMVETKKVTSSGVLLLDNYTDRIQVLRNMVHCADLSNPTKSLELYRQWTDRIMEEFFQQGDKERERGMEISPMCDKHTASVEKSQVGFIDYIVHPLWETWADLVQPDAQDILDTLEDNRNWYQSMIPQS

Row | SMILES | IC50 (PDE4B) | Activity at Percent Concentration Tested [1, 2] | Activity at Percent Concentration Tested [1, 3] | Activity at Percent Concentration Tested [1, 4]
1 | COc1ccc2c(Nc3c(Cl)cncc3Cl)cc(N)nc2c1OC1CCCC1 [Example 23, 8-(Cyclopentyloxy)-N4-(3,5-dichloropyridin-4-yl)-7-methoxyquinoline-2,4-diamine] | ≤ 1000 nM | Inactive | Inactive | Inactive
2 | COc1ccc2c(Nc3c(Cl)cncc3Cl)cc(OCCN(C)C)nc2c1OC1CCCC1 [Example 25, 8-(Cyclopentyloxy)-N-(3,5-dichloropyridin-4-yl)-2-(2-(dimethylamino)ethoxy)-7-methoxyquinolin-4-amine] | ≤ 1000 nM | Inactive | Inactive | Inactive
3 | COc1ccc2c(Nc3c(Cl)cncc3Cl)cc(OCCN(C)C)nc2c1OCC1CC1 [Example 30, 8-(Cyclopropylmethoxy)-N-(3,5-dichloropyridin-4-yl)-2-(2-(dimethylamino)ethoxy)-7-methoxyquinolin-4-amine] | ≤ 1000 nM | Inactive | Inactive | Inactive
